Reference: PMC9034499, “RORγt agonist enhances anti-PD-1 therapy by promoting monocyte-derived dendritic cells through CXCL10 in cancers” (Journal of Experimental & Clinical Cancer Research : CR, 2022)

Experiment: Drug toxicity evaluation by histopathology (H&E staining)
Assay type: in vivo, mice
Conditions: 50 mg/kg or 100 mg/kg i.p. daily for two weeks
Method: We further explored the in vivo efficacy of 8-074. First, we conducted a drug toxicity evaluation by histopathology using H&E staining. […] Given the in vivo toxicity and body weight loss during dose escalation, we determined 50 mg/kg for use in the in vivo mechanistic study. The anti-tumor effect of 8-074 was also tested in two other murine syngeneic tumor models (B16F10 and MC38, which are models of melanoma and colon adenocarcinoma, respectively).
Supplementary file 13046_2022_2289_MOESM3_ESM.pdf: Additional file 3: Fig. S3. Selectivity and safety analysis of 8-074. (a) Representative hematoxylin and eosin (H&E) staining micrograph (200 ×) of heart, liver, lung, kidney, spleen, and intestine sections from mice receiving vehicle, 50 mg/kg, or 100 mg/kg 8-074 for two weeks. Scale bar = 100 μm. Vehicle, daily administration of 50 μL DMSO by intraperitoneal injection; 50 mg/kg and 100 mg/kg, daily administration of the corresponding dose (volume less than or equal to 50 μL) by intraperitoneal injection. The cell morphology, number, and distribution in heart, liver, lung, kidney, spleen, and intestine tissues after 8-074 injection were not different from those in the vehicle group. (b and c) Effects of 8-074 on body weight in mice. Data represents the mean ± SD from biological quadruplicates. All error bars represent mean ± SD. Data are from three independent experiments.

## CCS(=O)(=O)c1ccc(CC(=O)Nc2ccc(-c3ccc(CC(C)C)c(C#N)c3)c(C(F)(F)F)c2)cc1 [8-074]
  histopathology, H&E staining of organs: No noteworthy necrosis or other abnormality was observed
